Laboratory results reported in patent US10519197B1, “Peptide-based proteasome inhibitors for treating conditions mediated by senescent cells and for treating cancer” (UNITY BIOTECHNOLOGY, INC., priority 2017, dated 2019).
Values belong to the compound of their own block, whether it stands above or below them.

Key:
Assay type in all cases: in vivo, mouse
[1] = tested on: 3MR and INK-ATTAC mice exposed to cigarette smoke; experiment: Cigarette smoke COPD model, oxygen saturation by pulse oximeter; conditions: after two months of cigarette smoke exposure, compared with untreated controls
Method: As a model for chronic obstructive pulmonary disease (COPD), mice were exposed to cigarette smoke. The effect of a senolytic agent on the mice exposed to smoke is assessed by senescent cell clearance, lung function, and histopathology.
The mice used in this study include the 3MR strain, described in US 2017/0027139 A1 and in Demaria et al., Dev Cell. 2014 December 22; 31(6): 722-733. The 3MR mouse has a transgene encoding thymidine kinase that converts the prodrug ganciclovir (GCV) to a compound that is lethal to cells. The enzyme in the transgene is placed under control of the p16 promoter, which causes it to be specifically expressed in senescent cells. Treatment of the mice with GCV eliminates senescent cells.
Other mice used in this study include the INK-ATTAC strain, described in US 2015/0296755 A1 and in Baker et al., Nature 2011 Nov. 2; 479(7372):232-236. The INK-ATTAC mouse has a transgene encoding switchable caspase 8 under control of the p16 promoter. The caspase 8 can be activated by treating the mice with the switch compound AP20187, whereupon the caspase 8 directly induces apoptosis in senescent cells, eliminating them from the mouse.
To conduct the experiment, six-week-old 3MR (n=35) or INK-ATTAC (n=35) mice were chronically exposed to cigarette smoke generated from a Teague TE-10 system, an automatically-controlled cigarette smoking machine that produces a combination of side-stream and mainstream cigarette smoke in a chamber, which is transported to a collecting and mixing chamber where varying amounts of air is mixed with the smoke mixture. The COPD protocol was adapted from the COPD core facility at Johns Hopkins University (Rangasamy et al., 2004, J. Clin. Invest. 114:1248-1259; Yao et al., 2012, J. Clin. Invest. 122:2032-2045).
Mice received a total of 6 hours of cigarette smoke exposure per day, 5 days a week for 6 months. Each lighted cigarette (3R4F research cigarettes containing 10.9 mg of total particulate matter (TPM), 9.4 mg of tar, and 0.726 mg of nicotine, and 11.9 mg carbon monoxide per cigarette [University of Kentucky, Lexington, Ky.]) was puffed for 2 seconds and once every minute for a total of 8 puffs, with the flow rate of 1.05 L/min, to provide a standard puff of 35 cm^3. […] The smoke chamber atmosphere was monitored for total suspended particulates (80-120 mg/m3) and carbon monoxide (350 ppm). […]
After two months of cigarette smoke (CS) exposure, lung function was assessed by monitoring oxygen saturation using the MouseSTAT PhysioSuite™ pulse oximeter (Kent Scientific). […] Mice were monitored for 30 seconds and the average peripheral capillary oxygen saturation (SpO2) measurement over this duration was calculated.

LDLR-/- mice fed a HFD = experiment: Atherosclerosis model (LDLR-/- mice, high fat diet): Sudan IV staining of aortic plaques; conditions: 25 mg/kg intraperitoneally, timepoint 3 (week 12)
Method: (§1) Two groups of LDLR−/− mice (10 weeks) are fed a high fat diet (HFD) (Harlan Teklad TD.88137) having 42% calories from fat, beginning at Week 0 and throughout the study. Two groups of LDLR−/− mice (10 weeks) are fed normal chow (−HFD). From weeks 0-2, one group of HFD mice and −HFD mice are treated with Nutlin-3A (25 mg/kg, intraperitoneally). One treatment cycle is 14 days treatment, 14 days off. Vehicle is administered to one group of HFD mice and one group of −HFD mice. At week 4 (timepoint 1), one group of mice are sacrificed and to assess presence of senescent cells in the plaques. For the some of the remaining mice, Nutlin-3A and vehicle administration is repeated from weeks 4-6. At week 8 (timepoint 2), the mice are sacrificed and to assess presence of senescent cells in the plaques. The remaining mice are treated with Nutlin-3A or vehicle from weeks 8-10. At week 12 (timepoint 3), the mice are sacrificed and to assess the level of plaque and the number of senescent cells in the plaques.
(§2) At the end of timepoint 3, LDLR−/− mice fed a HFD and treated with Nutlin-3A or vehicle (n=3 for all groups) were sacrificed, and aortas were dissected and stained with Sudan IV to detect the presence of lipid. Body composition of the mice was analyzed by MRI, and circulating blood cells were counted by Hemavet™.

[2] = tested on: C57BL/6J mice with surgery-induced osteoarthritis; experiment: Osteoarthritis model (ACL surgery): histopathology of joint tissue; conditions: 5.8 μg per operated knee, intra-articular; 4 weeks post-surgery
Method: (§3) The model was implemented as follows. C57BL/6J mice underwent surgery to cut the anterior cruciate ligament of one rear limb to induce osteoarthritis in the joint of that limb. During week 3 and week 4 post-surgery, the mice were treated with 5.8 μg of Nutlin-3A (n=7) per operated knee by intra-articular injection, q.o.d. for 2 weeks. At the end of 4 weeks post-surgery, joints of the mice were monitored for presence of senescent cells, assessed for function, monitored for markers of inflammation, and underwent histological assessment.

[3] = tested on: MMP3, MMP13, PAI1, p21, IGFBP2, IL-1A, and IL-1B; experiment: Atherosclerosis model (LDLR-/- mice, high fat diet): RT-PCR of SASP factors and senescent cell markers in aortic arches; conditions: 25 mg/kg intraperitoneally, HFD
Method: as §1, with “At week 8 (timepoint 2), the mice are sacrificed and to assess presence of senescent cells in the plaques. The remaining mice are treated with Nutlin-3A or vehicle from weeks 8-10. At week 12 (timepoint 3), the mice are sacrificed and to assess the level of plaque and the number of senescent cells in the plaques.” left out
At the end of timepoint 1, LDLR−/− mice fed a HFD and treated with Nutlin-3A or vehicle were sacrificed (n=3, all groups), and the aortic arches were dissected for RT-PCR analysis of SASP factors and senescent cell markers. Values were normalized to GAPDH and expressed as fold-change versus age-matched, vehicle-treated LDLR−/− mice on a normal diet.
At the end of timepoint 2, LDLR−/− mice fed a HFD and treated with Nutlin-3A or vehicle (n=3 for all groups) were sacrificed, and aortic arches were dissected for RT-PCR analysis of SASP factors and senescent cell markers. Values were normalized to GAPDH and expressed as fold-change versus age-matched, vehicle-treated LDLR−/− mice on a normal diet.

[4] = tested on: C57BL/6J mice with surgery-induced osteoarthritis; experiment: Osteoarthritis model (ACL surgery): weight bearing test; conditions: 5.8 μg per operated knee, intra-articular; 4 weeks post-surgery
Method: as §3
Function of the limbs was assessed 4 weeks post-surgery by a weight bearing test to determine which leg the mice favored. The mice were allowed to acclimate to the chamber on at least three occasions prior to taking measurements. Mice were maneuvered inside the chamber to stand with one hind paw on each scale. The weight that was placed on each hind limb was measured over a three second period. At least three separate measurements were made for each animal at each time point. The results were expressed as the percentage of the weight placed on the operated limb versus the contralateral unoperated limb.

p16, IL-6, and MMP13 = experiment: Osteoarthritis model (ACL surgery): qRT-PCR of senescence and SASP markers in operated joints; conditions: 5.8 μg per operated knee, intra-articular, q.o.d. for 2 weeks; 4 weeks post-surgery; mRNA by qRT-PCR
Method: as §3
Two control groups of mice were included in the studies performed: one group comprising C57BL/6J or 3MR mice that had undergone a sham surgery (n=3) (i.e., surgical procedures followed except for cutting the ACL) and intra-articular injections of vehicle parallel to the GCV (ganciclovir) treated group; and one group comprising C57BL/6J or 3MR mice that had undergone an ACL surgery and received intra-articular injections of vehicle (n=5) parallel to the GCV-treated group. RNA from the operated joints of mice from the Nutlin-3A treated mice was analyzed for expression of SASP factors (mmp3, IL-6) and senescence markers (p16). qRT-PCR was performed to detect mRNA levels.

[5] = Atherosclerosis model: circulating blood cell counts by Hemavet; conditions: 25 mg/kg intraperitoneally, timepoint 3 (week 12)
Method: as §1, §2

[6] = Atherosclerosis model: body composition by MRI; conditions: 25 mg/kg intraperitoneally, timepoint 3 (week 12), mice fed the high fat diet
Method: as §1, §2

platelet and lymphocyte counts versus vehicle treated mice [5]: equivalent
Structure (SMILES): COc1ccc(C2=N[C@@H](c3ccc(Cl)cc3)[C@@H](c3ccc(Cl)cc3)N2C(=O)N2CCNC(=O)C2)c(OC(C)C)c1 [Nutlin-3A]
SpO2 levels [1]: statistically significant increases | reduction of the surface area covered by plaques in the descending aorta (LDLR-/- mice fed a HFD): about 45% | destruction of the proteoglycan layer (histopathology of joint tissue) [2]: completely abrogated this effect | expression of SASP factors and senescent cell markers MMP3, MMP13, PAI1, p21, IGFBP2, IL-1A, and IL-1B in aortic arch ([3]; after one treatment cycle (timepoint 1, week 4)): reduced expression | expression of SASP factors and senescent cell markers in aortic arch ([3]; multiple treatment cycles (timepoint 2, week 8)): reduced expression of most markers | weight bearing: favoring of the unoperated hind limb over the operated hind limb [4]: abrogated this effect | expression of p16, IL-6, and MMP13 in the tissue (p16, IL-6, and MMP13): reduced the expression back to below the level of the controls | mass and body fat composition [6]: decreased

Structure (SMILES): CC1(C)CCC(c2ccc(Cl)cc2)=C(CN2CCN(c3ccc(C(=O)NS(=O)(=O)c4ccc(N[C@H](CCN5CCOCC5)CSc5ccccc5)c(S(=O)(=O)C(F)(F)F)c4)cc3)CC2)C1 [ABT-263]
SpO2 levels [1]: statistically significant increases

Structure (SMILES): Nc1nc(O)c2ncn(COC(CO)CO)c2n1 [ganciclovir]
SpO2 levels [1]: statistically significant increases

Structure (SMILES): CC[C@H](C(=O)N1CCCC[C@H]1C(=O)O[C@H](CCc1ccc(OC)c(OC)c1)c1cccc(OCC(=O)NCC(CNC(=O)COc2cccc([C@@H](CCc3ccc(OC)c(OC)c3)OC(=O)[C@@H]3CCCCN3C(=O)[C@@H](CC)c3cc(OC)c(OC)c(OC)c3)c2)CN(C)C)c1)c1cc(OC)c(OC)c(OC)c1 [AP2018]
SpO2 levels [1]: statistically significant increases
